Results on 21 molecules are retold here after ChEMBL document CHEMBL1136265, “Dihydropyrimidinones--a new class of anti-staphylococcal antibiotics” (Bioorg Med Chem Lett, 2003).

A short description of assay [1]: In vitro inhibition of eucaryotic translation using […]. It counts as functional.
For assay [2], the system named is Staphylococcus aureus. Put plainly: Minimum inhibitory concentration against Staphylococcus aureus in vitro. Type of assay: functional.
The nature of assay [3]: In vitro selectivity ratio of procaryotic translation to eukaryotic translation. It counts as functional.
The test system of assay [4] is Escherichia coli. Kind of assay: In vitro inhibition of procaryotic translation using Escherichia coli S30 Extract system for Circular DNA. Type of assay: functional.
Assay [5] relates to J774. Kind of assay: Cytotoxicity against macrophage cell line (J774). The note with it: Mus musculus. It counts as functional, cell-based.
Assay [6] concerns Mus musculus. Put plainly: In vivo inhibitory activity against Staphylococcus aureus 133 after iv dose using murine sepsis model. Type of assay: functional.

Values after ≈ are worked out from the molar mass of the structure shown.

With `C/C(N)=N/CCC[C@H](N)CC(=O)N(C)C1CN=C(NC(N)=O)NC1=O.Cl.Cl` (some centres not stated), it took 600 nM to reach half-maximal inhibition in assay [1] (IC50). Also, the MIC in assay [2] was 0.4 µg/mL. Moreover, in assay [3], the Selectivity ratio stood at 0.17.

As for `CC(N)CCC(N)CC(=O)N(C)C1CN=C(NC(N)=O)NC1=O.Cl.Cl` (configuration not stated), the IC50 is 1200 nM in assay [1] and 1000 nM in assay [4]. Besides, in assay [2], the lowest concentration to inhibit growth (MIC) was 0.4 µg/mL. For the same molecule, the Selectivity ratio in assay [3] was 1.2.

For `CCNCCC[C@H](N)CC(=O)N(C)C1CN=C(NC(N)=O)NC1=O.Cl.Cl` (some centres not stated), the IC50 in assay [1] is 7600 nM; in assay [4], 4000 nM. Besides, the MIC in assay [2] worked out at 0.8 µg/mL. Besides, in assay [3], the Selectivity ratio came to 1.9.

`CN(C(=O)C[C@@H](N)CCCN=C(N)N)C1CN=C(NC(N)=O)NC1=O.Cl.Cl` (some centres not stated) registered an IC50 in assay [1] of 170 nM. The EC50 in assay [5] was 250 nM. Besides, the ED100 in assay [6] is 0.25 mg/kg. For the same molecule, 0.1 µg/mL was the least that counted as inhibitory in assay [2] (MIC). The Selectivity ratio in assay [3] was 0.57.

In turn, `CN(C(=O)C[C@@H](N)CCC(N)=O)C1CN=C(NC(N)=O)NC1=O.Cl` (some centres not stated) registered an IC50 in assay [4] of 64000 nM. In assay [2], this molecule displayed an MIC of 12.5 µg/mL.

On to `C/N=C(/N)NCCC[C@H](N)CC(=O)N(C)C1CN=C(NC(N)=O)NC1=O.Cl.Cl` (some centres not stated), for which the IC50 in assay [1] was determined as 4500 nM. In assay [5], this molecule came in with an EC50 of 5500 nM. The same molecule yielded an ED100 in assay [6] of 2 mg/kg. Also, the MIC in assay [2] is 0.8 µg/mL. In addition, the Selectivity ratio in assay [3] was found to be 9.1.

In assay [4], `COC(=O)NCCC[C@H](N)CC(=O)N(C)C1CN=C(NC(N)=O)NC1=O` (some centres not stated) registered an IC50 of over 64000 nM. Also, in assay [2], the minimum inhibitory concentration (MIC) came out at 100 µg/mL (≈ 269 µM).

For `CN(C(=O)C[C@@H](N)CCCC#N)C1CN=C(NC(N)=O)NC1=O.Cl` (some centres not stated), the half-inhibitory concentration (IC50) in assay [1] and in assay [4] was 25000 nM in each case. Moreover, the MIC in assay [2] came to 50 µg/mL. For the same molecule, in assay [3], the Selectivity ratio is 1.

Consider `CN(C(=O)C[C@@H](N)CC[C@H](N)CO)C1CN=C(NC(N)=O)NC1=O.Cl.Cl` (some centres not stated), for which the IC50 in assay [1] and in assay [4] was 2400 nM throughout. Moreover, in assay [2], the MIC came to 3.2 µg/mL. In addition, the Selectivity ratio in assay [3] was 1.

For the molecule `Br.Br.CN(C(=O)C[C@@H](N)CCCNC1=NCCN1)C1CN=C(NC(N)=O)NC1=O` (some centres not stated), the IC50 in assay [1] and in assay [4] was 9400 nM each time. It took 12.5 µg/mL to inhibit growth in assay [2] (MIC). Also, in assay [3], the Selectivity ratio is 1.

In the case of `CN(C(=O)C[C@@H](N)CCN=C(N)N)C1CN=C(NC(N)=O)NC1=O.Cl.Cl` (some centres not stated), the half-inhibitory concentration (IC50) in assay [1] and in assay [4] was 1200 nM throughout. The molecule also displayed an MIC in assay [2] of 25 µg/mL. Further, the Selectivity ratio in assay [3] was 1.

As for `CN(C(=O)C[C@@H](N)CCCN)C1CN=C(NC(N)=O)NC1=O.Cl.Cl` (some centres not stated), the results for the IC50 in assay [1] and in assay [4] were 3700 nM and 2000 nM, respectively. Also, in assay [5], the EC50 is 25000 nM. Besides, the ED100 in assay [6] worked out at 0.2 mg/kg. In addition, in assay [2], the MIC is 0.4 µg/mL. Besides, the Selectivity ratio in assay [3] is 1.9.

Molecule `CN(C(=O)C[C@@H](N)CCCCN)C1CN=C(NC(N)=O)NC1=O.Cl.Cl` (some centres not stated) registered an IC50 in assay [1] of 2800 nM. Moreover, the EC50 in assay [5] worked out at 6000 nM. The molecule also displayed an ED100 in assay [6] of 0.25 mg/kg. Also, the MIC in assay [2] came out at 0.05 µg/mL. Further, the Selectivity ratio in assay [3] was 5.3.

For `CN(C(=O)C[C@H](N)CCCN)C1CN=C(NC(N)=O)NC1=O.Cl.Cl` (some centres not stated), the IC50 in assay [1] amounted to 9400 nM; in assay [4], 6000 nM. Moreover, the MIC in assay [2] worked out at 6.3 µg/mL. In addition, in assay [3], the Selectivity ratio amounted to 1.6.

For the molecule `CN(C(=O)C[C@@H](N)CC(O)CCN)C1CN=C(NC(N)=O)NC1=O.Cl.Cl` (some centres not stated), the concentration for half-maximal inhibition (IC50) is 3200 nM in assay [1] and 3000 nM in assay [4]. Besides, 0.4 µg/mL was the least that counted as inhibitory in assay [2] (MIC).

Turning to `CN(C(=O)C[C@@H](N)CCCCN=C(N)N)C1CN=C(NC(N)=O)NC1=O.Cl.Cl` (some centres not stated), the figures for the IC50 in assay [1] and in assay [4] were 1600 nM and 300 nM, respectively. Besides, in assay [2], 0.2 µg/mL was the least that counted as inhibitory (MIC). Also, the Selectivity ratio in assay [3] came out at 5.3.

Molecule `CN(C(=O)CC(N)CC1CNCCO1)C1CN=C(NC(N)=O)NC1=O.Cl.Cl` (configuration not stated) had an IC50 in assay [4] of 1500 nM. In assay [2], it took 6.3 µg/mL to inhibit growth (MIC).

In the case of `CN(C(=O)C[C@@H](N)CCC/N=C(/N)S)C1CN=C(NC(N)=O)NC1=O.Cl` (some centres not stated), the IC50 in assay [1] and in assay [4] was 200 nM each time. The same molecule registered an MIC in assay [2] of 0.4 µg/mL. For the same molecule, in assay [3], the Selectivity ratio amounted to 1.

In the case of `CN(C(=O)C[C@@H](N)CC(=O)CCN)C1CN=C(NC(N)=O)NC1=O.Cl.Cl` (some centres not stated), inhibition in assay [4] was half-maximal at 3000 nM (IC50). The same molecule came in with an MIC in assay [2] of 3.2 µg/mL.

In assay [4], `CN(C(=O)CC(N)CCCO)C1CN=C(NC(N)=O)NC1=O.Cl` (configuration not stated) had an IC50 of over 64000 nM. The molecule also returned an MIC in assay [2] of 100 µg/mL.

As to `CN(C(=O)CC(N)c1cccc(NC(=N)N)c1)C1CN=C(NC(N)=O)NC1=O.Cl.Cl` (configuration not stated), the values for the half-maximal inhibitory concentration (IC50) in assay [1] and in assay [4] were 260 nM and 500 nM, respectively. The molecule also returned an MIC in assay [2] of 50 µg/mL. Also, in assay [3], the Selectivity ratio is 0.52.

In general, IC50 refers to the point on the concentration scale where inhibition reaches its midpoint. A low value points to inhibition by little substance. By MIC is commonly meant the lowest concentration that inhibits growth of the organism. Broadly, the EC50 is the midpoint of the concentration-response curve. Read a low EC50 as an effect from little substance.
